Patent US20210139484A1, “DIHYDROISOQUINOLINE-2(1H)-CARBOXAMIDE AND RELATED COMPOUNDS AND THEIR USE IN TREATING MEDICAL CONDITIONS” (GOSSAMER BIO SERVICES, INC., priority 2018, published 2021)

Target: T1, human HPK1 protein (Homo sapiens, UniProt Q92918)
T1 construct: recombinant human HPK1 protein (a.a. 1-346) was expressed in Sf9 insect cells; GST (N); purchased Signalchem M23-11G; host or cells: Sf9 insect cells (baculovirus)
T1 sequence (Q92918 1-346): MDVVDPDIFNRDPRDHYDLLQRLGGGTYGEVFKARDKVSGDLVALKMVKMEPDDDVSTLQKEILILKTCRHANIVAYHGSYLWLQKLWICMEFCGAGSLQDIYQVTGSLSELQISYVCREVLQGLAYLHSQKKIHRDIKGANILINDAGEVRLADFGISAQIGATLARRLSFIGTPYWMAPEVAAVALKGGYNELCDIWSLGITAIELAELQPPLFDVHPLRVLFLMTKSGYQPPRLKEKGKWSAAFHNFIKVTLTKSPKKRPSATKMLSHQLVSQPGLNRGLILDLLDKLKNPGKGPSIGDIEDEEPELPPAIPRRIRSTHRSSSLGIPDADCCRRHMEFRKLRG
Assay: Human HPK1 protein TR-FRET assay
Type: biochemical
Conditions: 1 mM ATP
Method in brief: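 GST-tagged HPK1 (a.a. 1-346, Sf9-expressed) at 10 nM phosphorylated 100 nM ULight CREBtide with 1 mM ATP in Tris pH 7.5, MgCl2, NP-40, DTT, 1% DMSO, 60 minutes at room temperature. Phospho-Ser133 detected by Eu-antibody TR-FRET (665/615 nm ratio); IC50 from 4-parameter fit against DMSO control.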

With `CCN1CCN(Cc2ccc(NC(=O)N3CCc4ncc(Oc5ncnn6cccc56)cc4C3)cc2C(F)(F)F)CC1` [compound 8, N-[4-[(4-Ethylpiperazin-1-yl)methyl]-3-(trifluoromethyl)phenyl]-3-[pyrrolo[2,1-f][1,2,4]triazin-4-yloxy]-5,6,7,8-tetrahydro-1,6-naphthyridine-6-carboxamide] as the molecule, how does the IC50 (Table 19) read?
The IC50 was under 0.5 µM.

Which IC50 (Table 19) does the source give for `CCN1CCN(Cc2ccc(NC(=O)N3CCc4ncc(Oc5ccnc6[nH]ccc56)cc4C3C)cc2C(F)(F)F)CC1` (stereo not shown) [compound 9, 3-((1H-pyrrolo[2,3-b]pyridin-4-yl)oxy)-N-(4-((4-ethylpiperazin-1-yl)methyl)-3-(trifluoromethyl)phenyl)-5-methyl-7,8-dihydro-1,6-naphthyridine-6(5H)-carboxamide] here?
The IC50 was under 0.5 µM.

For `CCN1CCN(Cc2ccc(NC(=O)N3Cc4cc(Oc5ccnc6[nH]ccc56)cnc4C(C)C3)cc2C(F)(F)F)CC1` (stereo not shown) [compound 10, 3-((1H-Pyrrolo[2,3-b]pyridin-4-yl)oxy)-N-(4-((4-ethylpiperazin-1-yl)methyl)-3-(trifluoromethyl)phenyl)-8-methyl-7,8-dihydro-1,6-naphthyridine-6(5H)-carboxamide], which IC50 (Table 19) is on record?
Its IC50 is under 0.5 µM.

How did the IC50 (Table 19) turn out when `CCN1CCN(Cc2ccc(NC(=O)N3CCc4ccc(Nc5ncnn6cccc56)cc4C3)cc2C(F)(F)F)CC1` [compound 11, N-(4-((4-Ethylpiperazin-1-yl)methyl)-3-(trifluoromethyl)phenyl)-7-(pyrrolo[2,1-f][1,2,4]triazin-4-ylamino)-3,4-dihydroisoquinoline-2(1H)-carboxamide] was run?
The IC50 was 0.5 to 5 µM.

How did the IC50 (Table 19) turn out when `CCN1CCN(Cc2ccc(NC(=O)C3CCc4ccc(Oc5cc(NC)ncn5)cc4C3)cc2C(F)(F)F)CC1` (stereo not shown) [compound 12, N-(4-((4-ethylpiperazin-1-yl)methyl)-3-(trifluoromethyl)phenyl)-7-((6-(methylamino)pyrimidin-4-yl)oxy)-1,2,3,4-tetrahydronaphthalene-2-carboxamide] was run?
The IC50 was 0.5 to 5 µM.

With `CCN1CCN(Cc2ccc(NC(=O)C3CCc4ccc(Oc5ncnn6cccc56)cc4C3)cc2C(F)(F)F)CC1` (stereo not shown) [compound 13, N-(4-((4-ethylpiperazin-1-yl)methyl)-3-(trifluoromethyl)phenyl)-7-(pyrrolo[2,1-f][1,2,4]triazin-4-yloxy)-1,2,3,4-tetrahydronaphthalene-2-carboxamide] as the molecule, how does the IC50 (Table 19) read?
Its IC50 is under 0.5 µM.

Which IC50 (Table 19) does the source give for `CCN1CCN(Cc2ccc(NC(=O)N3CC4CCC3c3cc(Oc5ccnc6[nH]ccc56)ccc34)cc2C(F)(F)F)CC1` (stereo not shown) [compound 14, 7-((1H-pyrrolo[2,3-b]pyridin-4-yl)oxy)-N-(4-((4-ethylpiperazin-1-yl)methyl)-3-(trifluoromethyl)phenyl)-1,2,3,4-tetrahydro-1,4-(epiminomethano)naphthalene-10-carboxamide] here?
Its IC50 is 0.5 to 5 µM.

Which IC50 (Table 19) does the source give for `CCN1CCN(Cc2ccc(NC(=O)C3CCc4ccc(Oc5ccnc6[nH]c(C)cc56)cc4N3)cc2C(F)(F)F)CC1` (stereo not shown) [compound 15, N-(4-((4-ethylpiperazin-1-yl)methyl)-3-(trifluoromethyl)phenyl)-7-((2-methyl-1H-pyrrolo[2,3-b]pyridin-4-yl)oxy)-1,2,3,4-tetrahydroquinoline-2-carboxamide] here?
The IC50 was under 0.5 µM.

How did the IC50 (Table 19) turn out when `CCN1CCN(Cc2ccc(NC(=O)C3CCc4ccc(Oc5ccnc6[nH]c(C)cc56)cc4N3C)cc2C(F)(F)F)CC1` (stereo not shown) [compound 16, N-(4-((4-ethylpiperazin-1-yl)methyl)-3-(trifluoromethyl)phenyl)-1-methyl-7-((2-methyl-1H-pyrrolo[2,3-b]pyridin-4-yl)oxy)-1,2,3,4-tetrahydroquinoline-2-carboxamide] was run?
The IC50 was under 0.5 µM.

Which IC50 (Table 19) does the source give for `CCN1CCN(Cc2ccc(NC(=O)N3CC(=O)c4ccc(Oc5ccnc6[nH]c(C)cc56)cc4C3)cc2C(F)(F)F)CC1` [compound 17, N-(4-((4-ethylpiperazin-1-yl)methyl)-3-(trifluoromethyl)phenyl)-7-((2-methyl-1H-pyrrolo[2,3-b]pyridin-4-yl)oxy)-4-oxo-3,4-dihydroisoquinoline-2(1H)-carboxamide] here?
Its IC50 is under 0.5 µM.

How did the IC50 (Table 19) turn out when `CCN1CCN(Cc2ccc(NC(=O)N3Cc4cc(Oc5ccnc6[nH]c(C)cc56)ccc4C(O)C3)cc2C(F)(F)F)CC1` (stereo not shown) [compound 18, N-(4-((4-ethylpiperazin-1-yl)methyl)-3-(trifluoromethyl)phenyl)-4-hydroxy-7-((2-methyl-1H-pyrrolo[2,3-b]pyridin-4-yl)oxy)-3,4-dihydroisoquinoline-2(1H)-carboxamide] was run?
Its IC50 is under 0.5 µM.

How did the IC50 (Table 20) turn out when `CN1CCN(Cc2ccc(NC(=O)N3CCc4ccc(Oc5c(F)cnc6[nH]c(-c7cnn(C)c7)cc56)cc4C3)cc2C(F)(F)F)CC1` [compound 19, 7-[[5-Fluoro-2-(1-methylpyrazol-4-yl)-1H-pyrrolo[2,3-b]pyridin-4-yl]oxy]-N-[4-[(4-methylpiperazin-1-yl)methyl]-3-(trifluoromethyl)phenyl]-3,4-dihydro-1H-isoquinoline-2-carboxamide] was run?
The IC50 was under 0.5 µM.

How did the IC50 (Table 20) turn out when `CC[C@H]1CN(C(=O)Nc2ccc(CN3CCN(C)CC3)c(C(F)(F)F)c2)Cc2cc(Oc3ccnc4[nH]c(C#N)cc34)cnc21` [compound 20, (8S)-3-[(2-Cyano-1H-pyrrolo[2,3-b]pyridin-4-yl)oxy]-8-ethyl-N-[4-[(4-methylpiperazin-1-yl)methyl]-3-(trifluoromethyl)phenyl]-7,8-dihydro-5H-1,6-naphthyridine-6-carboxamide] was run?
The IC50 was under 0.5 µM.

With `CC[C@H]1CN(C(=O)Nc2ccc(CN3CCN(C)CC3)c(C(F)(F)F)c2)Cc2cc(Oc3ccnc4[nH]c(C(=O)N(C)C)cc34)cnc21` [compound 21, (8S)-3-[[2-(dimethylcarbamoyl)-1H-pyrrolo[2,3-b]pyridin-4-yl]oxy]-8-ethyl-N-[4-[(4-methylpiperazin-1-yl)methyl]-3-(trifluoromethyl)phenyl]-7,8-dihydro-5H-1,6-naphthyridine-6-carboxamide] as the molecule, how does the IC50 (Table 20) read?
The IC50 was under 0.5 µM.

`CN1CCN(Cc2ccc(NC(=O)N3CCc4ccc(Nc5c(F)cnc6[nH]c(-c7cnn(C)c7)cc56)cc4C3)cc2C(F)(F)F)CC1` [compound 22, 7-[[5-Fluoro-2-(1-methylpyrazol-4-yl)-1H-pyrrolo[2,3-b]pyridin-4-yl]amino]-N-[4-[(4-methylpiperazin-1-yl)methyl]-3-(trifluoromethyl)phenyl]-3,4-dihydro-1H-isoquinoline-2-carboxamide] was tested. Which IC50 (Table 20) did it give?
Its IC50 is under 0.5 µM.

For `CCN1CCN(Cc2ccc(NC(=O)C3CCc4ncc(Oc5ccnc6[nH]ccc56)cc4C3)cc2C(F)(F)F)CC1` (stereo not shown) [compound 24, 3-((1H-Pyrrolo[2,3-b]pyridin-4-yl)oxy)-N-(4-((4-ethylpiperazin-1-yl)methyl)-3-(trifluoromethyl)phenyl)-5,6,7,8-tetrahydroquinoline-6-carboxamide], which IC50 (Table 20) is on record?
The IC50 was under 0.5 µM.
